Entries after “also recorded” stand apart in the source; their conditions may differ. Read-outs that look alike come from different tables or passages of the source.
Columns and labels:
[1] = target: T1, Human fibronectin lacking the ED-B domain (h6789) (Homo sapiens, UniProt P02751); assay: concentration dependent ELISA, negative control fibronectin fragment without ED-B; type: binding; settings: conc.-ELISA, open circles
T1 construct: Human fibronectin lacking the ED-B domain (h6789)

[2] = target: ED-B containing fibronectin fragment (67B89) (Homo sapiens, UniProt P02751); assay: label-free interaction assay using BIACORE; type: binding
Experimental: Different concentrations of the variant were analyzed (for example, 0-200 nM of the variant, preferably 1041-D11) for binding to an ED-B containing fibronectin fragment (referred to as 67B89) immobilized on a CMS-chip (BIACORE®) using methods known to those skilled in the art. The obtained data were processed via the BIAevaluation software and 1:1-Langmuir-fitting. The kinetic binding constants were kon=7.6*10^5 M^−1s^−1; koff=7.7*10^−4 s^−1. The kinetic binding constants were kon=4.5*10^5 M^−1 s^−1; koff 5.0^*10^−4 s^−1.

[3] = test system: L929 cells; assay: L929 apoptosis assay (TNF-alpha activity); type: cell-based
Experimental: The physiological TNF-alpha-activity of TNF-alpha-modified ubiquitin based ED-B binding fusions has been determined using the L929 apoptosis assay (Flick et al., 1984 J. Immunol. Methods. 68:167-175). In this assay, TNF-alpha efficiently stimulates cell death in actinomycinD sensitized cells at EC50 values in the picomolar range.
Cells have been resuspended in medium containing FBS and antibiotics. A cell suspension of 100 μl of a densitiy of 3.5×10^5 cells/ml has been seeded into the wells of a 96 well standard cell culture plate followed by over night incubation in a humidified CO2 incubator. Thereafter, the culture medium has been removed and 50 μl of medium containing FBS, ActinomycinD and antibiotics has been added to each well followed by a further 30 min incubation time. Thereafter, 50 μl of the test items, TNF-alpha-modified ubiquitin based ED-B binding-fusions or the human recombinant TNF-alpha control, at an appropriate concentration range of between 10^−7 and 10^−18 M, have been added. After a further 48 h incubation time the metabolic activity as a measure of cell survival was determined using WST-1 reagent (Roche).
Per test item at least three independent experiments have been conducted, each of them in triplicates. […]
The quantitative evaluation is based on the EC50-value, i.e. the value according to the test item concentration promoting the survival of half of the cells.

[4] = test system: F9 teratoma; type: in vivo; settings: for effect on tumor growth: stage 1
Experimental: To establish the therapeutic efficacy of 1041-D11-TNFalpha, the compound was tested on F9 teratoma (see Borsi et al., 2003 Blood 102, 4384-4392) in mouse models. […] F9 teratoma is an aggressive tumor with high vascular density. […] The experimental schedule for the efficacy study was adapted from Borsi, 2003.
Stage 1 defined the pharmacologic active and tolerable dose with endpoints relating to the ratio of tumor vs. body weight, weight loss and survival. […]
Stage 2 of the study defined the dose-dependent efficacy with Melphalan having as endpoint the retardation of tumor growth (animal weight loss>10%, tumor>10% body weight, ulceration of tumor). In the study, 1041D11/mTNFa, murine TNFa, in combination with melphalan were tested.

[5] = test system: EDB expressing cells; assay: binding specificity of the TNF-alpha fusion in cell culture (FIG. 17E); type: cell-based
[6] = target: fibronectin fragment 67B89 (ED-B) (Homo sapiens, UniProt P02751); assay: complex-formation analysis by SE-HPLC with 67B89; type: binding; settings: 0.72 nmol each, 1 h at RT
Experimental: (§1) For the analysis of complex formation, Tricorn Superdex 75 5/150 GL columns (GE-Healthcare) (V=3 ml) was used, protein amount of 50 μl was applied. Further conditions: buffer: 1×PBS, pH 7.3, flow-rate: 0.3 ml/min, run: 45 min (injection of sample: after 15 min). Condition: 0.72 nmol 1041-D11 protein+0.72 nmol ED-B (herein referred to 67B89 or also as a negative control 6789) incubated for 1 h at RT; then applied to column for analysis of complex-formation. In FIGS. 14A and 14B, only the variant is shown in black, only the target ED-B is shown in blue, the variant binding building a complex with ED-B in pink.

[7] = target: T2, fibronectin fragment 6789 without ED-B (Homo sapiens, UniProt P02751); assay: complex-formation analysis by SE-HPLC with 6789; type: binding; settings: 0.72 nmol each, 1 h at RT
T2 construct: fibronectin fragment 6789 without ED-B
Experimental: as §1

[8] = test system: human fetal lung fibroblast cells (Wi38); assay: binding to cell culture cells, Wi38; type: cell-based; settings: immunofluorescence
Experimental: (§2) The binding of variant 1041-D11 to cell culture cells was tested. Different cell culture cells were analysed, including normal human fetal lung fibroblast cells having high expression levels of ED-B (Wi38 cells), a mouse embryonic fibroblast cell line (Balb 3T3); a stromal cell line, derived from mouse bone marrow (ST-2) monocytes/macrophages (RAW 264.7), NHDF cells and murine fibroblast cells (LM).
The negative control cell type NHDF are primary normal fibroblast cells, which express low levels of EDB-fibronectin (data not shown).
The negative control cells type NHDF are primary normal fibroblast cells, which express low levels of EDB-fibronectin. The cells were plated in chamber-slides (NUNC, 60000 cells/ml). To analyses the binding potential the cells were fixed with 100% MeOH for 5 min at −20° C. To block unspecific binding, the cells were incubated with 5% Horse-serum 1 h 37° C. The cells were tested with the variant 1041-D11, an ED-B specific antibody FV28 CH4/F1 as positive control or UB—2 as negative control with different concentrations 1 h RT. The proving occurred about an incubation with rabbit-a-Strep-Tag-IgG (obtained from GenScript A00875, 1:500) for 1 h and incubation with a-rabbit-IgG*Alexa488-AK (obtained from Invitrogen A11008, 1:1000) for 1 h. The nuclei were stained with DAPI. […] The first 2 lines show the variant and positive control on Wi38-cell line.

[9] = test system: murine Balb 3T3-cells; assay: binding to cell culture cells, Balb 3T3; type: cell-based; settings: 1, 10, 50 nM
Experimental: as §2
(§3) Similar experiments were performed using different cells types, for example Balb3T3 (ATCC, Kat-Nr. 30-2002), Raw (Lonza, Kat-Nr. BE12-115F/U1), ST-2 (Lonza, Ka t-Nr. BE12-115F/U1).

[10] = test system: murine ST-2-cells; assay: binding to cell culture cells, ST-2; type: cell-based; settings: 1, 10, 50 nM
Experimental: as §2, §3

[11] = target: T3, ED-B (F9 tumor vasculature) (Mus musculus, UniProt P11276); assay: immunohistochemistry on F9 tumor tissue sections; type: binding, mice; settings: seven samples; 10 nM to 100 nM / 500 nM
T3 construct: 1041-D11 specifically decorates the vasculature in tissue sections from F9 tumors; from tissue; host or cells: F9 tumor tissue sections from mice
Experimental: F9 tumor tissues from seven samples were evaluated. […] ED-B is a highly specific marker for tumor vasculature. The target protein EDB is located on the abluminal side of the vessels. 1041-D11 specifically decorates the vasculature in tissue sections from F9 tumors. […] Thus, fusion proteins based on modified ubiquitin specifically binding to ED-B are suitable an ED-B based targeted therapy for cancer.

[12] = test system: 48 tissues in FDA relevant panel; assay: tissue panel staining (48 tissues); type: binding
[13] = test system: F9 tumor tissues; assay: accumulation in F9 tumor tissue; type: in vivo, mice; settings: time points between 30 min and 16 h
[14] = target: ED-B (Homo sapiens, UniProt P02751); assay: ED-B binding analysis, method not stated (FIG. 7, general statements)
Chain of ED-B (P02751 1266-1356 limits assumed): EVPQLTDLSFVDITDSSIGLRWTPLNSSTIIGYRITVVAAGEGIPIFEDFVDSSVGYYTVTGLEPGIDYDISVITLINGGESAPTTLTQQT

Chain of ED-B containing fibronectin fragment (67B89) (P02751 1085-1537 limits assumed): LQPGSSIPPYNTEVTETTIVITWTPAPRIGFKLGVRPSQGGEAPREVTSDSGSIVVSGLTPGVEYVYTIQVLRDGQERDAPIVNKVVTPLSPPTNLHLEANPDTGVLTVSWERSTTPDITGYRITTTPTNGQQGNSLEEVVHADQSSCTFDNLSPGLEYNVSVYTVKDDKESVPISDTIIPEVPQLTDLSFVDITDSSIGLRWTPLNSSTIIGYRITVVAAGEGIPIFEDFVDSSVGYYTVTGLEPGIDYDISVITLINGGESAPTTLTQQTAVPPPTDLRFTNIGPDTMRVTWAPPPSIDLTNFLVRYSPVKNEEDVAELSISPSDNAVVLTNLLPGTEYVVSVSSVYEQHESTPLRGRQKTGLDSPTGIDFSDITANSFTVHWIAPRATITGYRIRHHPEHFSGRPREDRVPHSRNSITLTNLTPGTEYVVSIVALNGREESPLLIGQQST
T2 sequence (P02751 1089-1449 isoform P02751-1): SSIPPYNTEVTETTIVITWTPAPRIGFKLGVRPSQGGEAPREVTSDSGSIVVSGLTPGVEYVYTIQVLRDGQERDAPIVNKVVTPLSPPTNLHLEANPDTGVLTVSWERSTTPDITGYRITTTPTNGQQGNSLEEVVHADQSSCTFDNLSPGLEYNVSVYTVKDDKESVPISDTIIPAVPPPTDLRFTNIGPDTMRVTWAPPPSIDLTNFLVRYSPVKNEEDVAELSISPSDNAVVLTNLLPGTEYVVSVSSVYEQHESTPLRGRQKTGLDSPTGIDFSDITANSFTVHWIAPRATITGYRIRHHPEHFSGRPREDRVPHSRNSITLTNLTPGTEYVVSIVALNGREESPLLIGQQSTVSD
Chain of fibronectin fragment 67B89 (ED-B) (P02751 1085-1537 limits assumed): as the sequence (P02751 1085-1537 limits assumed) above
T1 sequence (P02751 1085-1446 isoform P02751-1): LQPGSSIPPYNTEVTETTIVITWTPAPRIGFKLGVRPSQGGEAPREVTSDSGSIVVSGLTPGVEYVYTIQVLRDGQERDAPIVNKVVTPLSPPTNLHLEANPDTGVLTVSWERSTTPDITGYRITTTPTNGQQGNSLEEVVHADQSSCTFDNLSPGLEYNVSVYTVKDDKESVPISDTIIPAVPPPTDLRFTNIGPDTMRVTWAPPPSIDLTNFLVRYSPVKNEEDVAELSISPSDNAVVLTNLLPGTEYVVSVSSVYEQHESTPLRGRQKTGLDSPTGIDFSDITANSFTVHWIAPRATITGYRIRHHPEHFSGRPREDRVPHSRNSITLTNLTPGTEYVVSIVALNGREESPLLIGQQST
T3 sequence (P11276 33-2477): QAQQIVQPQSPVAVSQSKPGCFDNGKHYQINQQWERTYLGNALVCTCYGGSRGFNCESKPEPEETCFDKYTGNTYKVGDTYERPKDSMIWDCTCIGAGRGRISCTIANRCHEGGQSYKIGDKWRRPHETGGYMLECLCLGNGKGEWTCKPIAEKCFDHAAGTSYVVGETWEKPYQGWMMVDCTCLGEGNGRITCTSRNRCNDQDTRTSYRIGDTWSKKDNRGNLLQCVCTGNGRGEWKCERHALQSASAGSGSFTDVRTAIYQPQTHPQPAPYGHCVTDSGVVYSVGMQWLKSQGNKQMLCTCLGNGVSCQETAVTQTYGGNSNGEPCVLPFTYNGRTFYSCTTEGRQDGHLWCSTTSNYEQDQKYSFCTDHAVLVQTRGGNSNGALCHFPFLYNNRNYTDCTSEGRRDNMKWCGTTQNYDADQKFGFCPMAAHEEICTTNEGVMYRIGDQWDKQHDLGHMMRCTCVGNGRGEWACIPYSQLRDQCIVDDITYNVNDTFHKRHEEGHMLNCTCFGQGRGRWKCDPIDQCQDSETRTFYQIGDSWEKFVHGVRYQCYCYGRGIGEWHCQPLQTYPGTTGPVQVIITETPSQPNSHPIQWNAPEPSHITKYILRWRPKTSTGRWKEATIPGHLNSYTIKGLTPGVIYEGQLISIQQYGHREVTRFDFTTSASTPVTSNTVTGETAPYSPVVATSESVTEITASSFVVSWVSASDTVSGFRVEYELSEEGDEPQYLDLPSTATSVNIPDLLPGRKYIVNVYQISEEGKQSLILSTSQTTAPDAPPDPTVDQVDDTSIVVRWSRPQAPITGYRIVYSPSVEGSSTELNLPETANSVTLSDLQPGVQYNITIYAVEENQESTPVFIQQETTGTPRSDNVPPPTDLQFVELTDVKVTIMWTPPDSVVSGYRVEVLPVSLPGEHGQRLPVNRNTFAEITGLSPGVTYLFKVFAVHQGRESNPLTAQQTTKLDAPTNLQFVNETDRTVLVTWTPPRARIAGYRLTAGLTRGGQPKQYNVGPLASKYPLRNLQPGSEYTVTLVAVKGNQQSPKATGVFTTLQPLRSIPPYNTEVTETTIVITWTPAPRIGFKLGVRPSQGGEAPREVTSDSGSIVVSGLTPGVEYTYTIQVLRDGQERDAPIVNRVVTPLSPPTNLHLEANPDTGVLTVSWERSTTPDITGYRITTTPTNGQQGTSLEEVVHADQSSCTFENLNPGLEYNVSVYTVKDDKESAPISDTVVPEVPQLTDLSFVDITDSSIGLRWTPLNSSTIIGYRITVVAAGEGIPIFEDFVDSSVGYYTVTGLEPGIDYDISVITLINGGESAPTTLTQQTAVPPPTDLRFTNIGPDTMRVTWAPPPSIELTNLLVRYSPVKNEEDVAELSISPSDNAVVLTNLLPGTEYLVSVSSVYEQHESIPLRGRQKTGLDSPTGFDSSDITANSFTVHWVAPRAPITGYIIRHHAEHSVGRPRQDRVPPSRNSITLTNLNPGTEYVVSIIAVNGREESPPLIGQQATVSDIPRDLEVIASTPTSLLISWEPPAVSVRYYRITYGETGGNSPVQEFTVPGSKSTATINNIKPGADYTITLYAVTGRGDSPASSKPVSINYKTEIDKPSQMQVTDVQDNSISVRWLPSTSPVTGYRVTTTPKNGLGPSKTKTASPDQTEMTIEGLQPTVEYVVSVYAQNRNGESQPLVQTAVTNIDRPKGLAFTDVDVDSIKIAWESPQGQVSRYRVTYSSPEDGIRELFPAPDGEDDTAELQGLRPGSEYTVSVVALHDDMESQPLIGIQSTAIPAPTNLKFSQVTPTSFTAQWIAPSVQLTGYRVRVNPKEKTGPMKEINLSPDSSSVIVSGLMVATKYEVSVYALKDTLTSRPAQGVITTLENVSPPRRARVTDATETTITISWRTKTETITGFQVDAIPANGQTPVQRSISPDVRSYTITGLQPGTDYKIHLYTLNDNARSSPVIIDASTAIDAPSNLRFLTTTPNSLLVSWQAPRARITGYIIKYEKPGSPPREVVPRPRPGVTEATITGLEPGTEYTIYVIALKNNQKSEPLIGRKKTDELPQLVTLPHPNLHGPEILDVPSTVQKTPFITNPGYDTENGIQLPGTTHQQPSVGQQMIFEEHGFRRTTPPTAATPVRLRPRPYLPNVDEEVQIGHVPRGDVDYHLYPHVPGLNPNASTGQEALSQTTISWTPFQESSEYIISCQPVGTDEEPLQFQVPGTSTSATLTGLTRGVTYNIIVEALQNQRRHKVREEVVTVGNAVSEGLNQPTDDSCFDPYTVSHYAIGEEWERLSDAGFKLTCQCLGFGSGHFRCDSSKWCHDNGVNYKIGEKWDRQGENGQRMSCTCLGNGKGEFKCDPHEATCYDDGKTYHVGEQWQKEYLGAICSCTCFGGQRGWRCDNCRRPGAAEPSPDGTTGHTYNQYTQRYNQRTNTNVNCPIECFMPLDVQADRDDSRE

Substance | binding to negative control fragment 6789 [1] | kon [2] [M⁻¹ s⁻¹] | apoptosis inducing TNF-alpha activity [3] | relative tumor growth ([4]; in combination with Melphalan, 7 days, versus mTNFalpha with Melphalan or Melphalan alone) | effect on tumor growth ([4]; highest dose (6.75 μmol/g)) | effect on tumor growth ([4]; lowest dose (0.25 pmol/g)) | binding to EDB expressing cells ([5]; target(+)) | cross reaction in serum without ED-B ([5]; target(−)) | koff [2] [s⁻¹] | complex formation with 67B89 (ED-B) [6] | complex formation with 6789 (no ED-B) [7] | binding on vital Wi38 cells ([8]; different concentrations) | binding on fixed Wi38 cells ([8]; 58.7 nM and 587 nM) | binding on fixed murine Balb 3T3-cells [9] | binding on fixed murine ST-2-cells [10] | staining of F9 tumor tissue sections [11] | unspecific staining in 48 tissues [12] | accumulation in F9 tumor tissue [13] | ED-B binding activity [14]
1041-D11-TNFalpha: fusion protein of hetero-dimeric variant 1041-D11 and TNFα (mouse or human) | not bound | 450000 | as active as free TNF-alpha | reduces the relative tumor growth more efficiently | no suppressing effect on tumor growth | seems to retard tumor growth | specifically binds | no cross reaction |  |  |  |  |  |  |  |  |  |  | 
1041-D11: hetero-dimeric ubiquitin variant: K6W, L8W, K63R, E64K, S65F, T66P; second module K6T, L8Q, Q62W, K63S, E64N, S65W, T66E, Q2R | no binding | 760000 |  |  |  |  |  |  | 0.00077 | formation of a complex; also recorded: builds a complex | no significant binding; also recorded: no complex | binds to vital Wi38 cells with high specificity | binds to fixed Wi38 cells with high specificity | binds to murine Balb 3T3 cells with high specificity | binds to murine Balb ST-2 cells with high specificity | ED-B specific vascular staining | no unspecific staining | enriched | superior ED-B binding activity
